Measurements taken from patent US20060069132A1, “Azolecarboxamide herbicides” (priority 2004, published 2006).
Read-outs that look alike come from different tables or passages of the source.

Tests used:
[1] = test system: redroot pigweed; test: Test A pre-/postemergence herbicide test; type: in vivo, Amaranthus retroflexus; settings: for pest or weed control at 125 g/ha / pest or weed control at 500 g/ha: Amaranthus retroflexus, 240 h, read-out: Pigweed plant response rating; for pest or weed control at 125 g/ha: 125 g ai/ha
How it was run: (§1)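 Greenhouse injury scoring (0–100, complete control = 100) at approximately ten days follows simultaneous pre- and postemergence application. Soil received a directed spray after seeding; seedlings of 2–10 cm at the one- to two-leaf stage were sprayed to runoff.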

[2] = test system: large crabgrass; test: Test A pre-/postemergence herbicide test; type: in vivo, Digitaria sanguinalis; settings: for pest or weed control at 125 g/ha / pest or weed control at 500 g/ha: Digitaria sanguinalis, 240 h, read-out: Crabgrass, Large plant response rating; for pest or weed control at 125 g/ha: 125 g ai/ha
How it was run: as §1

[3] = test system: barnyardgrass; test: Test A pre-/postemergence herbicide test; type: in vivo, Echinochloa crus-galli; settings: for pest or weed control at 125 g/ha / pest or weed control at 500 g/ha: Echinochloa crus-galli, 240 h, read-out: Barnyardgrass plant response rating; for pest or weed control at 125 g/ha: 125 g ai/ha
How it was run: as §1

[4] = test system: velvetleaf; test: Test B pre-/postemergence herbicide test; type: in vivo, Abutilon theophrasti
How it was run: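 Visual rating, 0 (no effect) to 100 (complete control), versus untreated controls after 13–15 d in greenhouse. Pre- and postemergence applications (postemergence plants 2–18 cm, 1–4 leaves); flooded paddy arm at 2-leaf stage. Compounds in non-phytotoxic solvent plus surfactant.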

[5] = test system: bermudagrass; test: Test C pre-/postemergence herbicide test; type: in vivo, Cynodon dactylon
Text: (§2) Seeds of plant species selected from bermudagrass (Cynodon dactylon (L.) Pers.), Surinam grass (Urochloa decumbens (Staph) R. D. Webster, previously named Brachiaria decumbens Stapf), cocklebur (Xanthium strumarium L.), corn (Zea mays L.), large crabgrass (Digitaria sanguinalis (L.) Scop.), woolly cupgrass (Eriochloa villosa (Thunb.) Kunth), giant foxtail (Setaria faberi Herrm.), goosegrass (Eleusine indica (L.) Gaertn.), johnsongrass (Sorghum halepense (L.) Pers.), kochia (Kochia scoparia (L.) Schrad.), lambsquarters (Chenopodium album L.), morningglory (Ipomoea coccinea L.), eastern black nightshade (Solanum ptycanthum Dunal), yellow nutsedge (Cyperus esculentus L.), pigweed (Amaranthus retroflexus L.), common ragweed (Ambrosia elatior L.), soybean (Glycine max (L.) Merr.), common (oilseed) sunflower (Helianthus annuus L.) and velvetleaf (Abutilon theophrasti Medik.) were planted and treated preemergence with test chemicals formulated in a non-phytotoxic solvent mixture which included a surfactant.
(§3) At the same time, plants selected from these crop and weed species and also winter barley (Hordeum vulgare L.), blackgrass (Alopecurus myosuroides Huds.), canarygrass (Phalaris minor Retz.), chickweed (Stellaria media (L.) Vill.), downy bromegrass (Bromus tectorum L.), green foxtail (Setaria viridis (L.) Beauv.), Italian ryegrass (Lolium multiflorum Lam.), wheat (Triticum aestivum L.), wild oat (Avenafatua L.) and windgrass (Apera spica-venti (L.) Beauv.) were treated with postemergence applications of some of the test chemicals formulated in the same manner. Plants ranged in height from 2 to 18 cm (1- to 4-leaf stage) for postemergence treatments. Plant species in the flooded paddy test consisted of rice (Oryza sativa), smallflower umbrella sedge (Cyperus difformis L.), ducksalad (Heteranthera limosa (Sw.) Willd.) and barnyardgrass (Echinochloa crus-galli (L.) Beauv.) grown to the 2-leaf stage for testing. Treated plants and controls were maintained in a greenhouse for 12 to 14 days, after which time all species were compared to controls and visually evaluated. Plant response ratings, summarized in Table C, are based on a scale of 0 to 100 where 0 is no effect and 100 is complete control. A dash (-) response means no test result.

[6] = test system: johnsongrass; test: Test C pre-/postemergence herbicide test; type: in vivo, Sorghum halepense; settings: preemergence
Text: as §2, §3

[7] = post-emergence, Postemergence, 0 to 100 scale, 0 no effect, 100 complete control
[8] = post-emergence, Postemergence, 500 g ai/ha, 0 to 100 scale, 0 no effect, 100 complete control
[9] = pre-emergence, preemergence, visual injury, 0 to 100 scale (0 no effect, 100 complete control)
[10] = pre-emergence, preemergence, 500 g ai/ha, visual injury, 0 to 100 scale (0 no effect, 100 complete control)
[11] = Postemergence, 500 g ai/ha, 0 to 100 scale, 0 no effect, 100 complete control
[12] = Postemergence, 2000 g ai/ha, 0 to 100 scale, 0 no effect, 100 complete control
[13] = Preemergence, 2000 g ai/ha, visual rating, 0 to 100 scale (0 no effect, 100 complete control)
[14] = preemergence, 500 g ai/ha, visual injury, 0 to 100 scale (0 no effect, 100 complete control)
[15] = 125 g ai/ha, visual rating, scale 0 (no effect) to 100 (complete control), postemergence
[16] = 500 g ai/ha, visual rating, 0 = no effect, 100 = complete control, preemergence
[17] = postemergence, 500 g ai/ha, scale 0 to 100, 0 is no effect, 100 is complete control
[18] = Abutilon theophrasti, post-emergence, 336 h, postemergence, 125 g ai/ha, visual rating, scale 0 (no effect) to 100 (complete control), read-out: Velvetleaf plant response rating
[19] = Abutilon theophrasti, pre-emergence, 336 h, 125 g ai/ha, 0 = no effect, 100 = complete control, read-out: Velvetleaf plant response rating (0 to 100 scale)
[20] = postemergence, 125 g ai/ha, visual rating, scale 0 (no effect) to 100 (complete control)
[21] = 125 g ai/ha, 0 is no effect, 100 is complete control, preemergence
[22] = Preemergence, 500 g ai/ha, visual rating, 0 to 100 scale (0 no effect, 100 complete control)

CCNC(=O)c1cccc(NC(=O)c2nc(C(C)(C)C)nn2CC)c1 [Compound 446, 3-(1,1-dimethylethyl)-1-ethyl-N-[3-[(ethylamino)carbonyl]phenyl]-1H-1,2,4-triazole-5-carboxamide]
pest or weed control at 125 g/ha [1, 7]: 65% | pest or weed control at 500 g/ha [1, 8]: 80% | pest or weed control at 125 g/ha [1, 9]: 90% | pest or weed control at 500 g/ha [1, 10]: 100% | pest or weed control at 125 g/ha [2, 7]: 45% | pest or weed control at 500 g/ha [2, 8]: 65% | pest or weed control at 125 g/ha [2, 9]: 10% | pest or weed control at 500 g/ha [2, 10]: 40% | pest or weed control at 125 g/ha [3, 7]: 80% | pest or weed control at 500 g/ha [3, 8]: 90% | pest or weed control at 125 g/ha [3, 9]: 55% | pest or weed control at 500 g/ha [3, 10]: 85%

CCOC(=O)c1cccc(NC(=O)c2cc(C(C)(C)C)nn2C)n1 [Compound 313]
Pigweed plant response rating [1, 11]: 100 | Plant response rating, Pigweed [1, 12]: 100 | Pigweed plant response rating [1, 13]: 100 | Pigweed plant response rating [1, 14]: 95 | Crabgrass, Large plant response rating [2, 11]: 70 | Plant response rating, Crabgrass, Large [2, 12]: 100 | Crabgrass, Large plant response rating [2, 13]: 95 | Crabgrass, Large plant response rating [2, 14]: 85 | Velvetleaf plant response rating [4, 15]: 60 | Plant response rating, Velvetleaf [4, 16]: 100 | Velvetleaf plant response rating [4, 17]: 70 | Barnyardgrass plant response rating [3, 11]: 80 | Plant response rating, Barnyardgrass [3, 12]: 95 | Barnyardgrass plant response rating [3, 13]: 90 | Barnyardgrass plant response rating [3, 14]: 80

CCn1nc(C(C)(C)C)c(F)c1C(=O)Nc1cc(C(=O)N(C)C)ccc1F [Compound 276, N-[5-[(dimethylamino)carbonyl]-2-fluorophenyl]-3-(1,1-dimethylethyl)-1-ethyl-4-fluoro-1H-pyrazole-5-carboxamide]
pest or weed control at 125 g/ha [4, 18]: 10% | pest or weed control at 500 g/ha ([4]; Abutilon theophrasti, post-emergence, 336 h, postemergence, 500 g ai/ha, scale 0 to 100, 0 is no effect, 100 is complete control, read-out: Velvetleaf plant response rating): 40% | pest or weed control at 125 g/ha [4, 19]: 0% | pest or weed control at 500 g/ha ([4]; Abutilon theophrasti, pre-emergence, 336 h, 500 g ai/ha, visual rating, 0 = no effect, 100 = complete control, read-out: Plant response rating, Velvetleaf): 50%

C=CCN(C)C(=O)c1cccc(NC(=O)c2cc(C(C)(C)C)nn2CC)c1 [Compound 285]
Pigweed plant response rating [1, 11]: 80 | Plant response rating, Pigweed [1, 12]: 100 | Pigweed plant response rating [1, 13]: 100 | Pigweed plant response rating [1, 14]: 100 | Crabgrass, Large plant response rating [2, 11]: 15 | Plant response rating, Crabgrass, Large [2, 12]: 35 | Crabgrass, Large plant response rating [2, 13]: 85 | Crabgrass, Large plant response rating [2, 14]: 60 | Velvetleaf plant response rating (0 to 100 scale) ([4]; 125 g ai/ha, 0 = no effect, 100 = complete control, preemergence): 30 | Plant response rating, Velvetleaf [4, 16]: 100 | Velvetleaf plant response rating [4, 20]: 10 | Velvetleaf plant response rating [4, 17]: 40 | Barnyardgrass plant response rating [3, 11]: 55 | Plant response rating, Barnyardgrass [3, 12]: 80 | Barnyardgrass plant response rating [3, 13]: 90 | Barnyardgrass plant response rating [3, 14]: 70

CCc1nn(C(C)(C)C)nc1C(=O)Nc1cccc(C(=O)N(C)CC)c1 [Compound 384]
Plant response rating, Bermudagrass ([5]; 31 g ai/ha, scale 0 to 100, 0 no effect, 100 complete control, last section of Table C (species set of preemergence test)): 65 | Plant response rating, Bermudagrass ([5]; 62 g ai/ha, preemergence, scale 0 to 100, 0 no effect, 100 complete control): 100 | Plant response rating (0 = no effect, 100 = complete control), Bermudagrass ([5]; 125 g ai/ha, preemergence): 100 | Plant response rating, Bermudagrass ([5]; 250 g ai/ha, scale 0-100, preemergence): 100 | Plant response rating, Johnsongrass ([6]; 62 g ai/ha, scale 0 to 100): 100 | Plant response rating (0 = no effect, 100 = complete control), Johnsongrass ([6]; 125 g ai/ha): 100 | Plant response rating, Johnsongrass ([6]; 250 g ai/ha, scale 0-100): 100 | Plant response rating (0 to 100 scale), Velvetleaf [4, 21]: 70 | Velvetleaf plant response rating [4, 15]: 30 | Velvetleaf plant response rating ([4]; Postemergence, 500 g ai/ha, scale 0 (no effect) to 100 (complete control)): 70

CCNC(=O)c1ccc(F)c(NC(=O)c2c3c(nn2CC)C(C)(C)CC3)c1 [Compound 353]
Plant response rating (0 to 100 scale), Velvetleaf [4, 21]: 10 | Velvetleaf plant response rating [4, 15]: 20 | Velvetleaf plant response rating [4, 17]: 20

C=Cn1nc(C(C)(C)C)cc1C(=O)Nc1cccc(C(C)=O)c1 [Compound 127]
Pigweed plant response rating [1, 11]: 40 | Plant response rating, Pigweed [1, 12]: 50 | Pigweed plant response rating [1, 13]: 50 | Pigweed plant response rating [1, 14]: 40 | Crabgrass, Large plant response rating [2, 11]: 15 | Plant response rating, Crabgrass, Large [2, 12]: 35 | Crabgrass, Large plant response rating [2, 22]: 75 | Crabgrass, Large plant response rating [2, 13]: 85 | Plant response rating, Velvetleaf ([4]; 500 g ai/ha, visual rating 0-100, 0 no effect, 100 complete control, preemergence): 20 | Velvetleaf plant response rating [4, 20]: 0 | Velvetleaf plant response rating ([4]; postemergence, 500 g ai/ha, visual rating, scale 0 (no effect) to 100 (complete control)): 10 | Plant response rating, Velvetleaf ([4]; preemergence, 125 g ai/ha, 0 to 100 scale, 0 is no effect, 100 is complete control): 10 | Barnyardgrass plant response rating [3, 11]: 30 | Plant response rating, Barnyardgrass [3, 12]: 50 | Barnyardgrass plant response rating [3, 22]: 20 | Barnyardgrass plant response rating [3, 13]: 30

CCc1cn(C(C)(C)C)nc1C(=O)Nc1cccc(C(=O)N(CC)CC)c1 [Compound 168, N-[3-[(diethylamino)carbonyl]phenyl]-1-(1,1-dimethylethyl)-4-ethyl-1H-pyrazole-3-carboxamide]
pest or weed control at 31 g/ha ([4]; Abutilon theophrasti, post-emergence, 336 h, postemergence, 31 g ai/ha, scale 0 to 100, read-out: Velvetleaf plant response rating): 10% | pest or weed control at 125 g/ha [4, 18]: 20% | pest or weed control at 125 g/ha [4, 19]: 60%
